From article PMC7489219 (Molecular Brain, 2020)
Where a name gives a salt, the structure may show the parent alone.

Test system: T1, primary mouse cortical neurons
T1 construct: primary cortical neurons, DIV 10
Assay: cells
Set-up: Protection from NMDA-induced (30 uM, 10 min) neuronal death; Hoechst nuclear morphology by automated microscopy
Conditions: Cortical neurone, 20 h, read-out: % inhibition, inhibition of NMDA-induced cell death (protection score), 30 min pre-treatment
Procedure, shortened: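 On DIV 10, primary mouse cortical neurons were given compound at 10 μM for 30 min at 37 °C, then 30 μM NMDA for 10 min, washed, and kept 20 h with compound. Dead cells were scored by nuclear morphology, and % protection was derived from survival relative to vehicle + NMDA and untreated controls.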

Row | SMILES | inhibition at 10 µM [%]
1 | COC(=O)[C@H]1[C@H]2C[C@@H]3c4[nH]c5cc(OC)ccc5c4CCN3C[C@H]2C[C@@H](OC(=O)c2cc(OC)c(OC)c(OC)c2)[C@@H]1OC [Reserpine] | 24
2 | Oc1ccc(/C=C/c2cc(O)cc(O)c2)cc1 [Resveratrol] | 22.8
3 | O=C(O)c1cc(O)c2c(c1)C(=O)c1cccc(O)c1C2=O [Rhein (Monorhein)] | 5.39
4 | COc1cc(O)c2c(c1)C(=O)c1cc(C)cc(O)c1C2=O [Rheochrysidin (Physcione)] | 18.7
5 | NC(=O)c1ncn([C@@H]2O[C@H](CO)[C@@H](O)[C@H]2O)n1 [Ribavirin (Copegus)] | 12.3
6 | Cc1cc2nc3c(=O)[nH]c(=O)nc-3n(C[C@H](O)[C@H](O)[C@H](O)CO)c2cc1C [Riboflavin (Vitamin B2)] | 1.7
7 | CO[C@H]1/C=C/O[C@@]2(C)Oc3c(C)c(O)c4c(O)c(c5c(c4c3C2=O)=NC2(CCN(CC(C)C)CC2)N=5)NC(=O)/C(C)=C\C=C\[C@H](C)[C@H](O)[C@@H](C)[C@@H](O)[C@@H](C)[C@H](OC(C)=O)[C@@H]1C [Rifabutin (Mycobutin)] | -2.35
8 | CO[C@H]1/C=C/O[C@@]2(C)Oc3c(C)c(O)c4c(O)c(c(/C=N/N5CCN(C6CCCC6)CC5)c(O)c4c3C2=O)NC(=O)/C(C)=C\C=C\[C@H](C)[C@H](O)[C@@H](C)[C@@H](O)[C@@H](C)[C@H](OC(C)=O)[C@@H]1C [Rifapentine (Priftin)] | 9.26
9 | CO[C@H]1/C=C/O[C@@]2(C)Oc3c(C)c(O)c4c(O)c(c5c(nc6cc(C)ccn65)c4c3C2=O)NC(=O)/C(C)=C\C=C\[C@H](C)[C@H](O)[C@@H](C)[C@@H](O)[C@@H](C)[C@H](OC(C)=O)[C@@H]1C [Rifaximin (Xifaxan)] | 1.93
10 | Nc1nc2ccc(OC(F)(F)F)cc2s1 [Riluzole (Rilutek)] | 40.9
11 | O=P(O)(O)C(O)(Cc1cccnc1)P(=O)(O)O [Risedronate sodium] | 4.5
12 | Cc1nc2n(c(=O)c1CCN1CCC(c3noc4cc(F)ccc34)CC1)CCCC2 [Risperidone (Risperdal)] | 23.7
13 | CC(C)c1nc(CN(C)C(=O)N[C@H](C(=O)N[C@@H](Cc2ccccc2)C[C@H](O)[C@H](Cc2ccccc2)NC(=O)OCc2cncs2)C(C)C)cs1 [Ritonavir] | -1.84
14 | CN(C)CCc1c[nH]c2ccc(Cn3cncn3)cc12 [Rizatriptan Benzoate (Maxalt)] | 14.3
15 | C=CC[N+]1([C@H]2C[C@H]3[C@@H]4CC[C@H]5C[C@H](O)[C@@H](N6CCOCC6)C[C@]5(C)[C@H]4CC[C@]3(C)[C@H]2OC(C)=O)CCCC1 [Rocuronium bromide] | -0.727
16 | COc1cc2c(cc1OC)[C@@H]1Cc3ccc(OC)c(OC)c3CN1CC2 [Rotundine] | -0.337
17 | NC(=O)c1cn(Cc2c(F)cccc2F)nn1 [Rufinamide (Banzel)] | -3.11
18 | O=c1c2ccccc2nc2n1CCc1c-2[nH]c2ccccc12 [Rutaecarpine (Rutecarpine)] | 5.35
19 | C[C@@H]1O[C@@H](OC[C@H]2O[C@@H](Oc3c(-c4ccc(O)c(O)c4)oc4cc(O)cc(O)c4c3=O)[C@H](O)[C@@H](O)[C@@H]2O)[C@H](O)[C@H](O)[C@H]1O [Rutin (Rutoside)] | -3.76
20 | COc1ccc([C@H]2CNC(=O)C2)cc1OC1CCCC1 [S-(+)-Rolipram] | -1.23
21 | CC(C)(C)NCC(O)c1ccc(O)c(CO)c1 (centres unmarked) [Salbutamol sulfate (Albuterol)] | -7.52
22 | OCc1ccccc1O[C@@H]1O[C@H](CO)[C@@H](O)[C@H](O)[C@H]1O [Salicin (Salicoside, Salicine)] | -2.7

Row | SMILES | inhibition at 10 µM [%]
23 | OC[C@H]1O[C@@H](OCCc2ccc(O)cc2)[C@H](O)[C@@H](O)[C@@H]1O [Salidroside (Rhodioloside)] | 11.2
24 | C=C[C@](C)(O)CC[C@@H]1[C@@]2(C)CCCC(C)(C)[C@@H]2CC[C@@]1(C)O [Sclareol] | 23.8
25 | CC1(C)CCC[C@]2(C)[C@H]3CC(=O)O[C@]3(C)CC[C@@H]12 [Sclareolide (Norambreinolide)] | 28.8
26 | CN1[C@@H]2CC(OC(=O)[C@H](CO)c3ccccc3)C[C@H]1[C@@H]1O[C@@H]12 (some centres unmarked) [Scopolamine hydrobromide] | -0.0258
27 | c1cc2c(cc1[C@H]1OC[C@H]3[C@@H]1CO[C@@H]3c1ccc3c(c1)OCO3)OCO2 [Sesamin (Fagarol)] | 15.7
28 | O=C(O)C1=C[C@@H](O)[C@@H](O)[C@H](O)C1 [Shikimic acid (Shikimate)] | 0.278
29 | CCCc1nn(C)c2c(=O)[nH]c(-c3cc(S(=O)(=O)N4CCN(C)CC4)ccc3OCC)nc12 [Sildenafil citrate] | 4.4
30 | COc1cc([C@H]2Oc3cc([C@H]4Oc5cc(O)cc(O)c5C(=O)[C@@H]4O)ccc3O[C@@H]2CO)ccc1O [Silibinin (Silybin)] | 8.03
31 | COc1cc([C@H]2Oc3ccc([C@H]4Oc5cc(O)cc(O)c5C(=O)[C@@H]4O)cc3O[C@@H]2CO)ccc1O [Silymarin (Silybin B)] | 10
32 | CCC(C)(C)C(=O)O[C@H]1C[C@@H](C)C=C2C=C[C@H](C)[C@H](CC[C@@H]3C[C@@H](O)CC(=O)O3)[C@H]21 [Simvastatin (Zocor)] | 2.21
33 | O=C(O)C(O)Cc1ccc(O)c(O)c1 (centres unmarked) [Sodium Danshensu] | 6.44
34 | CCCC(=O)O [Sodium butyrate] | 0.412
35 | O=C1C=CC[C@@H]2[C@H]3CCCN4CCC[C@@H](CN12)[C@@H]34 [Sophocarpine] | 0.911
36 | CNC(=O)c1cc(Oc2ccc(NC(=O)Nc3ccc(Cl)c(C(F)(F)F)c3)cc2)ccn1 [Sorafenib (Nexavar)] | -5.2
37 | OC[C@@H](O)[C@@H](O)[C@H](O)[C@@H](O)CO [Sorbitol (Glucitol)] | 3.24
38 | CC(C)NCC(O)c1ccc(NS(C)(=O)=O)cc1 (centres unmarked) [Sotalol (Betapace)] | -6.66
39 | CN[C@@H]1[C@H](O)[C@H](NC)[C@H]2O[C@@]3(O)C(=O)C[C@@H](C)O[C@H]3O[C@@H]2[C@H]1O [Spectinomycin hydrochloride] | -1.03
40 | Cc1cn([C@H]2C=C[C@@H](CO)O2)c(=O)[nH]c1=O [Stavudine] | 6.33
41 | CC[C@H](/C=C/[C@@H](C)[C@H]1CC[C@H]2[C@@H]3CC=C4C[C@@H](O)CC[C@]4(C)[C@H]3CC[C@]12C)C(C)C [Stigmasterol (Stigmasterin)] | 4.26
42 | Nc1ccc(S(=O)(=O)Nc2ncccn2)cc1 [Sulfadiazine] | 17.4
43 | COc1cnc(NS(=O)(=O)c2ccc(N)cc2)nc1 [Sulfameter (Bayrena)] | 28.2
44 | Cc1cc(NS(=O)(=O)c2ccc(N)cc2)no1 [Sulfamethoxazole] | -1.59

Row | SMILES | inhibition at 10 µM [%]
45 | Nc1ccc(S(N)(=O)=O)cc1 [Sulfanilamide] | 17.7
46 | Cc1noc(NS(=O)(=O)c2ccc(N)cc2)c1C [Sulfisoxazole] | -0.221
47 | CC1=C(CC(=O)O)c2cc(F)ccc2/C1=C\c1ccc([S+](C)[O-])cc1 (centres unmarked) [Sulindac (Clinoril)] | -5.67
48 | CNS(=O)(=O)Cc1ccc2[nH]cc(CCN(C)C)c2c1 [Sumatriptan succinate] | 8.05
49 | CCN(CC)CCNC(=O)c1c(C)[nH]c(/C=C2\C(=O)Nc3ccc(F)cc32)c1C [Sunitinib Malate (Sutent)] | 1.4
50 | CNCC(O)c1ccc(O)cc1 (centres unmarked) [Synephrine (Oxedrine)] | 3.83
51 | CN1CC(=O)N2[C@H](c3ccc4c(c3)OCO4)c3[nH]c4ccccc4c3C[C@@H]2C1=O [Tadalafil (Cialis)] | 0.202
52 | CC/C(=C(\c1ccccc1)c1ccc(OCCN(C)C)cc1)c1ccccc1 [Tamoxifen Citrate (Nolvadex)] | -8.21
53 | COc1ccc(-c2cc(=O)c3c(OC)c(OC)c(OC)c(OC)c3o2)cc1 [Tangeretin (Tangeritin)] | -0.746
54 | Cc1coc2c1C(=O)C(=O)c1c-2ccc2c1CCCC2(C)C [Tanshinone IIA (Tanshinone B)] | 3.42
55 | Cc1coc2c1C(=O)C(=O)c1c-2ccc2c(C)cccc12 [Tanshinone I] | -5.27
56 | NCCS(=O)(=O)O [Taurine] | 8.63
57 | O=C1c2c(O)cc(O)cc2O[C@H](c2ccc(O)c(O)c2)[C@H]1O [Taxifolin (Dihydroquercetin)] | 12.2
58 | CCOC(=O)c1ccc(C#Cc2ccc3c(c2)C(C)(C)CCS3)nc1 [Tazarotene (Avage)] | 38.1
59 | Cc1cn([C@@H]2C[C@@H](O)[C@H](CO)O2)c(=O)[nH]c1=O [Telbivudine (Sebivo, Tyzeka)] | 23.8
60 | CCCc1nc2c(C)cc(-c3nc4ccccc4n3C)cc2n1Cc1ccc(-c2ccccc2C(=O)O)cc1 [Telmisartan (Micardis)] | 0.71
61 | CO[C@H]1C[C@@H]2CC[C@@H](C)[C@@](O)(O2)C(=O)C(=O)N2CCCC[C@H]2C(=O)O[C@H]([C@H](C)C[C@@H]2CC[C@@H](OC(=O)C(C)(CO)CO)[C@H](OC)C2)CC(=O)[C@H](C)/C=C(\C)[C@@H](O)[C@@H](OC)C(=O)[C@H](C)C[C@H](C)/C=C/C=C/C=C/1C [Temsirolimus (Torisel)] | 1.56
62 | COc1cc([C@@H]2c3cc4c(cc3[C@@H](O[C@@H]3O[C@@H]5CO[C@@H](c6cccs6)O[C@H]5[C@H](O)[C@H]3O)[C@H]3COC(=O)[C@H]23)OCO4)cc(OC)c1O [Teniposide (Vumon)] | -0.429
63 | C[C@H](Cn1cnc2c(N)ncnc21)OCP(=O)(O)O [Tenofovir (Viread)] | 8.23
64 | CCCCNc1ccc(C(=O)OCCN(C)C)cc1 [Tetracaine hydrochloride (Pontocaine)] | -0.577
65 | COc1ccc2cc1Oc1ccc(cc1)C[C@H]1c3cc(c(OC)cc3CCN1C)Oc1c(OC)c(OC)cc3c1[C@H](C2)N(C)CC3 [Tetrandrine (Fanchinine)] | 9.82
